The text below walks through data of US9415036B2, “Pharmaceutical composition for use in the treatment or prevention of osteoarticular diseases” (BONE THERAPEUTICS, priority 2008, dated 2016).

Assay type in all cases: cell-based, human
The test system of assay [1] is IL-1β. Description: IL-1β detection (ELISA) in PBMC culture supernatants. The procedure:
(§1) PBMCs (Peripheral blood mononuclear cells) from heparinized venous blood of healthy volunteers were isolated by Ficoll-gradient centrifugation. MNC (Mononuclear cells) were washed three times in PBS and resuspended in RPMI-1640 medium supplemented with 100 U/mL penicillin, 100 μg/mL streptomycin, and 10% heat-inactivated FBS (Fetal Bovine Serum). Cells were seeded at 100.000 cells in 96-wel plate in a total volume of 200 μL/well.
(§2) PBMC, at 100.000 cells/200 μL, were plated in 96-well microtiter plates and stimulated or not with 10 μg/mL phytohemagglutinin (PHA). Effects of hyaluronic acid “HA” (200 μg/mL) and p-aminoclonidine “A2A” (5 μM) were tested on PBMC.
MSC (Mesenchymal stromal cells) were derived from 20 to 60 mL of heparinized bone marrow (BM) obtained from the iliac crest of healthy volunteers. BM was mixed with phosphate-buffered saline (PBS, 2v:v) and layered on density gradient Ficoll solution. After centrifugation, mononuclear cells were harvested from the interface and washed twice in PBS. […]
The culture was incubated with 1 μCi/mL 3H-thymidine for 24 hours before end of culture to measure the proliferation. […] Supernatants were collected and analyzed on a beta-counter in presence of scintillation liquid. […] Levels of IL-1β from PBMC or culture supernatants were measured by Quantikine ELISA kit (R&D Systems Inc, Mineapolis, USA). […]
(In general: An ELISA detects its analyte on a solid surface through an enzyme-linked reagent.)

For assay [2], the system named is PBMC (Peripheral blood mononuclear cells). As to the kind of experiment: Proliferation assay (3H-thymidine) of PBMC. As to the method: as §1, §2
MSC (Mesenchymal stromal cells) were derived from 20 to 60 mL of heparinized bone marrow (BM) obtained from the iliac crest of healthy volunteers. BM was mixed with phosphate-buffered saline (PBS, 2v:v) and layered on density gradient Ficoll solution. After centrifugation, mononuclear cells were harvested from the interface and washed twice in PBS. Cells were resuspended in standard MEM medium supplemented with 15% FBS. The cells were plated at 2×10^6 cells/75 cm2 flasks and maintained in a 37° C. humidified atmosphere containing 5% CO2. Cells were allowed to attach for 24 hours prior an initial medium change. Cells were detached at day 10 using trypsin-EDTA solution for 1-5 min at 37° C. Then, cells were irradiated (10 minutes at 2200Ci) before seeding in 96-well for proliferative assays at 12.500 cells/well to obtain a ratio 1:8 (MSC:PBMC).
The culture was incubated with 1 μCi/mL 3H-thymidine for 24 hours before end of culture to measure the proliferation. Then, cells were washed twice with ice-cold PBS and twice with ice-cold 5% trichloroacetic acid (TCA). Finally, cells were lysed with 0.1N NaOH-0.1% Triton-X100. Supernatants were collected and analyzed on a beta-counter in presence of scintillation liquid. Results were done in cpm (“count per minute”=disintegration number of radioactive element observed in series of successive counts of one minute). IL-1β (beta) detection (By ELISA). Levels of IL-1β from PBMC or culture supernatants were measured by Quantikine ELISA kit (R&D Systems Inc, Mineapolis, USA). The minimum detectable concentration of IL-1β was estimated at 1.0 pg/mL.
The release of IL-1 beta by PBMC and the proliferation of PBMC, induced by PHA stimulation, were set as controls, and compared with the measures for PBMC treated with HA and/or A2A.

In assay [3] the test system is MSCs. As to the kind of experiment: MSCs cultured in chondrogenic medium, pellets stained with Alcian blue / Nuclear fast red. As to conditions: HA 200 μg/ml, A2A 5 μMol. As to the method:
MSCs were culture in chondrogenic medium for 7, 14 and 21 days and 4 conditions were tested • control • A2A: 5 μMol aminoclonidine • HA: 200 μg/ml of hyaluronic acid • HA+A2A: 200 μg/ml of hyaluronic acid and 5 μMol aminoclonidine
At day 14 and 21, pellets were fixed in 10% buffered formalin for 6 hours, and washed twice in PBS. Pellets were then embedded in OCT (Sakura Finetek, Belgium). Sections were cut at a thickness of 5 μm and were stained with Alcian blue, before counterstained with Nuclear fast red (Klinipath, Belgium)
GAGs will be stained blue, while Nuclear fast red will counterstain cells nuclei in pink or red, and cytoplasm in pale pink. In brief, the procedure is 1) Stain in alcian blue solution for 30 minutes; 3) Wash in running tap water for 2 minutes; 4) Rinse in distilled water; 5) Counterstain in nuclear fast red solution for 5 minutes; 6) Wash in running tap water for 1 minute; 7) Dehydrate through 95% alcohol, and 2 changes of absolute alcohol, 3 minutes each; 8) clear in Ultraclear, a xylene substitute (Klinipath, Belgium); 9) Mount with Ultrakit mounting medium (Klinipahth, Belgium). Toluidine blue stains proteoglycan in red-purple (metachromatic staining) and the nucleus in blue (orthochromatic staining). Metachromasia, tissue elements staining a different color from the dye solution, is due to the pH, dye concentration and temperature of the basic dye. […]

Setting [4] is: basal (unstimulated) conditions.

“And” between values parts separate entries of the source, which are not always exact repeats. Equal values may be shown once.

Turning to `Nc1cc(Cl)c(N=C2NCCN2)c(Cl)c1` [A2A, p-aminoclonidine], the “effect on IL-1beta secretion” value is “totally suppressed” in assay [1] (PHA stimulated PBMC) and “no effect” in assay [1] (setting [4]). In addition, the Proliferation in assay [2] (PBMC stimulated with 10 μg/mL PHA, HA 200 μg/mL, A2A 5 μM, MSC:PBMC 1:8) is 16212 cpm; in assay [2] (PHA stimulated PBMC, PBMC + PHA set at 100), 101% and 100%; in assay [2] (unstimulated PBMC, HA 200 μg/mL, A2A 5 μM, MSC:PBMC 1:8), 786 cpm; in assay [2] (unstimulated PBMC, PBMC + PHA set at 100) it was 4.9%. Also, the “effect on PBMC proliferation” value is on record as “not able to inhibit” in assay [2] (PHA stimulated PBMC) and “no effect” in assay [2] (setting [4]). In addition, the “matrix (mucopolysaccharides and glycosaminoglycans) content / production, Alcian blue staining” value in assay [3] is recorded as “almost absent”.
